Holding throughout (format): functional
One assay has as its system Cryptococcus neoformans. As to the kind of experiment: Antifungal activity against Cryptococcus neoformans at 1 mg/mL. Particulars: read-out: IZ.
A further assay concerns Candida albicans. Description: Antifungal activity against Candida albicans B311 at 1 mg/mL. The settings on record: read-out: IZ.
The test system of a further assay is HT-29. As to the kind of experiment: Cytotoxicity against human HT29 cells.
The next assay deals with SK-MEL-28. As to the kind of experiment: Cytotoxicity against human SK-MEL-28 cells.
Another assay concerns A549. Description: Cytotoxicity against human A549 cells.
The test system of the next assay is P388. As to the kind of experiment: Cytotoxicity against mouse P388 cells.

Turning to `C[C@@H]1[C@H](O)[C@@H](C)/C=C/C=C/C=C/C=C/C=C/C=C/C=C/[C@H](O[C@@H]2O[C@H](C)[C@@H](O)[C@H](N)[C@@H]2O)C[C@@H]2O[C@](O)(C[C@@H](O)C[C@@H](O)[C@H](O)CC[C@@H](O)C[C@@H](O)CC(=O)O[C@H]1C)C[C@H](O)[C@H]2C(=O)O` [AMPHOTERICIN B], the zone of inhibition at 1000 µg/mL is 10 mm with Cryptococcus neoformans and 12 mm in the assay on Candida albicans.

As to `CC(C)C1=C[C@@H]2[C@H](CC[C@@]2(C)O)[C@@](C)(O)CC1` [GUAIANEDIOL], the Activity turned out to be 5 µg/mL in the assay on HT-29, 5 µg/mL in the assay on SK-MEL-28, 2.5 µg/mL in the assay with A549 and 1 µg/mL in the assay with P388.

As to `C=C(C)[C@H]1CC[C@@]23O[C@@H]2[C@@H](C[C@@]2(C)CC(=O)[C@H](CC(=O)C1)O2)OC(=O)[C@@]12CC[C@H](C(=C)C)CC(=O)C[C@H]4O[C@](C)(CC4=O)C[C@@H](OC3=O)[C@@H]1O2` [SINGARDIN], the zone of inhibition at 1000 µg/mL with Cryptococcus neoformans and with Candida albicans was 3 mm throughout. Moreover, the Activity was found to be 5 µg/mL with HT-29, 5 µg/mL in the assay with SK-MEL-28, 2.5 µg/mL with A549 and 1 µg/mL in the assay on P388.
